Data on three molecules can be found in publication PMC3103407 (2011).

Where a chain is given by its changes, count along the chain named. In names and notes the source's numbering stands.

Data set [1] deals with T1, Gap1p (Saccharomyces cerevisiae, UniProt P19145, K16R/K9R).
T1 sequence (P19145 1-602 K9R/K16R): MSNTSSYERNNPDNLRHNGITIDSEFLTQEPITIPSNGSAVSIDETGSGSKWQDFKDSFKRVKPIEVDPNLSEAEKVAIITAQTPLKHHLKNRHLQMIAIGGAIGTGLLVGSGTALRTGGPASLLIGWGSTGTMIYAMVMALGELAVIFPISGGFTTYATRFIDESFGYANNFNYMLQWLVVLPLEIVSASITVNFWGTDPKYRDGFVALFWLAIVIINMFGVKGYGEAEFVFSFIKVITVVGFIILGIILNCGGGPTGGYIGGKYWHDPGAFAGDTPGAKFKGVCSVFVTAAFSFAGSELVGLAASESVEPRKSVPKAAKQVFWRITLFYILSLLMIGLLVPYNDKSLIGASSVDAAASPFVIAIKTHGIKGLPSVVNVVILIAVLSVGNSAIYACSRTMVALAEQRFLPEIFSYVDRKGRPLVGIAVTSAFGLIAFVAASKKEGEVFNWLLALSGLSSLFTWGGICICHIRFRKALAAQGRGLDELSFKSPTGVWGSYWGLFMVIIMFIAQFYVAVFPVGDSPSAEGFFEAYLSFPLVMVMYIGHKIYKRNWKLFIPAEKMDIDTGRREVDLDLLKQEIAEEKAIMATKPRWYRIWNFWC
The data set can be described thus: competitive inhibition of […]-glycine uptake in yeast cells. It is filed as cell-based.

In data set [2] the target is T2, Gap1p (Saccharomyces cerevisiae, UniProt P19145, A297V/K16R/K9R).
T2 sequence (P19145 1-602 K9R/K16R/A297V): T1 sequence (P19145 1-602 K9R/K16R) with A297V
Described as above. Type of data set: cell-based.

Substrate in data set [3]: NCC(=O)O
Briefly: cells, lysate or membranes. Type of data set: cell-based, Saccharomyces cerevisiae. The conditions noted are these: active site (amino acid binding pocket).

What is called Ki is a dissociation constant, usually derived from enzyme kinetics or from competition with a known ligand. Consider `NC(=O)NCCC[C@H](N)C(=O)O` [citrulline], for which the Ki at Gap1p [1] was about 36.6 µM; at Gap1p [2], about 35.6 µM.

B1: Gap1p (Saccharomyces cerevisiae S288C; K16R/K9R) (protein)
chain: T1 sequence (P19145 1-602 K9R/K16R)
By Km is commonly meant the concentration of substrate that gives half-maximal velocity. Turning to B1, the Km in data set [3] was 20.0 ± 5.3 µM.

B2: Gap1p (Saccharomyces cerevisiae S288C; A297V/K16R/K9R) (protein)
chain: T1 sequence (P19145 1-602 K9R/K16R) with A297V
As to B2, in data set [3], the Km is 12.7 ± 1.12 µM.
